Assay results as given in paper PMC5069304 (Clinical Pharmacokinetics, 2016).

Assays:
[1] = Population pharmacokinetic analysis of plasma liraglutide; type: in vivo, human
[2] = Exposure assessment for dose proportionality, phase II dose-finding trial; type: in vivo, human
[3] = 60 kg subject vs reference subject weighing 100 kg
[4] = 234 kg subject vs reference subject weighing 100 kg

## CCCCCCCCCCCCCCCC(=O)N[C@@H](CCC(=O)NCCCC[C@H](NC(=O)[C@H](C)NC(=O)[C@H](C)NC(=O)[C@H](CCC(N)=O)NC(=O)CNC(=O)[C@H](CCC(=O)O)NC(=O)[C@H](CC(C)C)NC(=O)[C@H](Cc1ccc(O)cc1)NC(=O)[C@H](CO)NC(=O)[C@H](CO)NC(=O)[C@@H](NC(=O)[C@H](CC(=O)O)NC(=O)[C@H](CO)NC(=O)[C@@H](NC(=O)[C@H](Cc1ccccc1)NC(=O)[C@@H](NC(=O)CNC(=O)[C@H](CCC(=O)O)NC(=O)[C@H](C)NC(=O)[C@@H](N)Cc1cnc[nH]1)[C@@H](C)O)[C@@H](C)O)C(C)C)C(=O)N[C@@H](CCC(=O)O)C(=O)N[C@@H](Cc1ccccc1)C(=O)N[C@H](C(=O)N[C@@H](C)C(=O)N[C@@H](Cc1c[nH]c2ccccc12)C(=O)N[C@@H](CC(C)C)C(=O)N[C@H](C(=O)N[C@@H](CCCNC(=N)N)C(=O)NCC(=O)N[C@@H](CCCNC(=N)N)C(=O)NCC(=O)O)C(C)C)[C@@H](C)CC)C(=O)O [liraglutide, Liraglutide]
[1]; [3]
  CL/F lower than in reference subject: 29%
  liraglutide exposure higher than in reference subject: 41%
[1]; [4]
  CL/F higher than in reference subject: 78%
  liraglutide exposure lower than in reference subject: 44%
[1]; comparable body weight
  liraglutide exposure lower in males than in females: 24%
[1]; confounded by trial (all T2DM subjects from Trial 2)
  liraglutide exposure lower in subjects with T2DM than in normoglycaemic subjects: 16%
[1]; liraglutide 3.0 mg
  higher exposure in Trial 1 than in Trial 2: 29%
[1]; same/comparable body weight
  liraglutide exposure higher in females than males: 32%
[2]; Trial 3
  geometric mean of the individual apparent clearance estimates: 0.93 L/h
[2]; obese individuals, 1.2, 1.8, 2.4, 3.0 mg once daily, week 20
  dose proportionality of model-derived AUC by dose: supported dose proportionality of liraglutide up to and including 3.0 mg
